Where no end group is shown, it is not given here.
T1: FPRL1 (Homo sapiens, UniProt P25090)
T1 sequence (P25090 1-351): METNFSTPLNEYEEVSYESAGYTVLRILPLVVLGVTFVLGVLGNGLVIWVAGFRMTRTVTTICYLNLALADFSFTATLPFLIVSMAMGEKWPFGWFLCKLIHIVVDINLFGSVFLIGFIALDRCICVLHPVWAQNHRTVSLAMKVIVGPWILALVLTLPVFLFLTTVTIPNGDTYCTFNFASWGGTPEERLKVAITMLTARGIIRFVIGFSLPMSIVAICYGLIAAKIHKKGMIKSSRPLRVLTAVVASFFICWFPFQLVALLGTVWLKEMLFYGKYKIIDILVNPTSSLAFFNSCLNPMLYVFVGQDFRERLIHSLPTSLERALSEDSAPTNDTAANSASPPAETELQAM

T2: CCR1 (Homo sapiens, UniProt P32246)
T2 sequence (P32246 1-355): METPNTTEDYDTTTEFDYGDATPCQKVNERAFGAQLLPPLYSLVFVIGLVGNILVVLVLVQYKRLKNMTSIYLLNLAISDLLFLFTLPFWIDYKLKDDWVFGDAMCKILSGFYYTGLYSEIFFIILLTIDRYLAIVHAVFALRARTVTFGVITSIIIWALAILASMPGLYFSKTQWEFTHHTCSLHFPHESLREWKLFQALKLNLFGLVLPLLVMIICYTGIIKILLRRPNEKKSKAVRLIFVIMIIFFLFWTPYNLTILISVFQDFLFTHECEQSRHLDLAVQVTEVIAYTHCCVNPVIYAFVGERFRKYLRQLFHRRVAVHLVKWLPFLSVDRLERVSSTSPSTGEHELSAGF

B1: CCL23β Δ24: truncated form of CCL23β lacking the 24-residue N-terminal domain, beginning with the SHAAGtide insertion (protein, listed as Homo sapiens)
chain: MLWRRKIGPQMTLSHAAGFHATSADCCISYTPRSIPCSLLESYFETNSECSKPGVIFLTKKGRRFCANPSDKQVQVCMRMLKLDTRIKTRKN

Assays:
[1] = tested on: leukocytes (neutrophils); test: Leukocyte recruitment to skin after intradermal injection; type: in vivo; conditions: 2 μg intradermally, c57Bl/6 and BALB/c mice, 6 hours
Experimental: Immunohistochemistry. BALB/c and c57Bl/6 mice were injected intradermally with 50 μl sterile saline with or without 2 μg SHAAGtide. 6 hours later, mice were euthanized and the skin surrounding the injection site was excised. After immersion in 10% neutral-buffered formalin for 18-24 hours, the skin biopsy was processed in graded alcohols and embedded in paraffin wax. 5 μm-wide sections were cut on a Leica microtome, transferred to glass slides, deparaffinized in xylenes, and hydrated through graded alcohols. The sections were either stained with hematoxylin and eosin (Sigma, St. Louis Mo.) or stained immunohistochemically for neutrophils as follows. The slides were immersed in Target Retrieval solution (Dako, Carpinteria Calif.) for 20 minutes at 90° C., rinsed with water and immersed in tris-buffered saline (TBS) containing 2% bovine serum albumin for 20 minutes. The sections were then exposed to rat anti-mouse neutrophil monoclonal antibody (Accurate Chemical and Scientific, Westbury N.Y.) or rat IgG2a isotype control antibody (BD Pharmingen, San Diego Calif.) for 1 hour, rinsed with TBS, and exposed to biotinylated goat anti-rat Ig (Dako) for 30 minutes. The sections were then rinsed with TBS, stained with the ABC-AP and fuchsin reagents (both from Dako), rinsed with water, and counterstained with hematoxylin for 2 minutes. […]

[2] = target: T1, FPRL1; test: Receptor signaling (calcium mobilization) in L1.2-FPRL1 cells; type: cell-based; set-up: expressed in transfected cells; conditions: for calcium mobilization in the FPRL1 transfectant: L1.2 cells stably expressing human FPRL1, undigested
Experimental: Receptor signaling assay. For individual measurements, cells were loaded for 45 min at room temperature with 2 μM indo-1/AM (Invitrogen, Carlsbad Calif.) in culture medium, then washed with 10 ml PBS and resuspended at 10^6 cells/ml in HBSS containing 0.1% BSA. Cytosolic calcium levels were determined using a Photon Technology International fluorimeter (excitation at 350 nm, ratio of dual emission at 400 and 490 nm). For measuring calcium dose responses, cells were analyzed with a Fluorometric Imaging Plate Reader 384 (FLIPR^384) (Molecular Devices, Sunnyvale, Calif.). Cells were loaded for 1 hr at 37° C. with 5 μM fluo-4 in HBSS with 0.1% BSA, then washed, transferred to black-wall 96-well plates, and subsequently excited at 505 nm with emission recorded at 530 nm with a standard protocol provided by the manufacture. Cells were stimulated with agonists 20 s after the monitoring of fluorescence began. Data were analyzed and plotted in arbitrary units of fluorescence using Prism. To ensure that responses were specific to FPRL1, we utilized a selective small-molecule antagonist of human FPRL1, generated by ChemoCentryx, which was optimized from a high throughput compound library screening approach.
Since FPRL1 has been reported to interact with low affinity and/or potency with a spectrum of potential pathogenic ligands of viral, bacterial and endogenous origin, we performed comparative functional analyses to determine the precise functional domain for the SHAAGtide (FIG. 14). SHAAGtides containing N-terminal and C-terminal truncations and extensions were synthesized, and potencies for receptor signaling in L1.2-FPRL1 cells were tested. […] After removal of the N-terminal amino acid (Met) from SHAAGtide, its potency is reduced approximately 10 fold. Removal of the first two N-terminal amino acids (Met-Leu) totally abolished SHAAGtide's activity on FPRL1. Conversely, removal of the C-terminal three amino residues (AAG) from SHAAGtide had no effect on its activity on FPRL1. Removal of the C-terminal six residues (LSHAAG) reduced the peptide's potency only 3-fold. Many other purported naturally-occurring FPRL1 ligands, including serum amyloid A (SAA), beta-amyloid protein 42, lipoxin A4 and the bacterial tripeptide fMLP were tested.

[3] = target: T2, CCR1; test: Competition binding with 125I-MIP-1α on human monocytes; set-up: endogenous in cells; host or cells: human CD14+ monocytes from buffy coats
Experimental: Binding assay. Competition binding studies were conducted using monocytes, L1.2-CCR1 or L1.2-FPRL1 cells. Cells were incubated for 3 hr at 4° C. with ^125I-MIP-1α (final concentration ˜0.05 nM) or ^125I-WKYMVm (final concentration ˜0.01 nM) in buffer (25 mM HEPES, 140 mM NaCl, 1 mM CaCl2, 5 mM MgCl2 and 0.2% BSA, adjusted to pH 7.1) in the presence of increasing amounts of unlabeled chemokine. Reactions were aspirated onto PEI-treated GF/B glass filters using a cell harvester (Packard). Filters were washed twice (25 mM HEPES, 500 mM NaCl, 1 mM CaCl2, 5 mM MgCl2, adjusted to pH 7.1). Scintillant (MicroScint-10; 35 μl) was added to the filters and counted in a Packard Topcount scintillation counter. Data were analyzed and plotted using Prism (GraphPad Software, San Diego, Calif.).

[4] = target: T1, FPRL1; test: Competition binding with 125I-WKYMVm on human monocytes; set-up: endogenous in cells; host or cells: human CD14+ monocytes from buffy coats
Experimental: Binding assay. Competition binding studies were conducted using monocytes, L1.2-CCR1 or L1.2-FPRL1 cells. […] Reactions were aspirated onto PEI-treated GF/B glass filters using a cell harvester (Packard). Filters were washed twice (25 mM HEPES, 500 mM NaCl, 1 mM CaCl2, 5 mM MgCl2, adjusted to pH 7.1). Scintillant (MicroScint-10; 35 μl) was added to the filters and counted in a Packard Topcount scintillation counter. Data were analyzed and plotted using Prism (GraphPad Software, San Diego, Calif.).

Row | Molecule | mice with recruitment of leukocytes (primarily neutrophils) into the subcutis region of the dermis [1] | calcium mobilization in the FPRL1 transfectant [2] | Designation and FPRL1 Activity ([2]; SHAAGtide and truncated/other variants) | inhibition of 125I-MIP-1α binding [3] | IC50 [4] [nM]
1 | MLWRRKIGPQMTLSHAAG [SHAAGtide] | 6 of 6 | fully effective | sequence; high | did not inhibit | 10
2 | B1 | – | fully effective | – | moderate competitors | –

— US7572600B2, “Enzymatic activities in chemokine-mediated inflammation” (Chemocentryx, Inc., priority 2004, dated 2009)
